# Target: T1, Estrogen Receptor Alpha (ERα) (Homo sapiens, UniProt P03372, Y537S)
# T1 sequence (P03372 282-595 Y537S): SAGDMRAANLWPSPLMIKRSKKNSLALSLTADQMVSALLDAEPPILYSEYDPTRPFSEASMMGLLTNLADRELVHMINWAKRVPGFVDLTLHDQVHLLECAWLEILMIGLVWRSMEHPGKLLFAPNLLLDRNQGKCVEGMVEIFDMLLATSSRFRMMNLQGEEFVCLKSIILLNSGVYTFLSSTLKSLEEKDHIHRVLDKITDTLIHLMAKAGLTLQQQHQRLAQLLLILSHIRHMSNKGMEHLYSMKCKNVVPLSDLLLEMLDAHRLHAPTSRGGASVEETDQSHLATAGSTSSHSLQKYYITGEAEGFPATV
# Assay: LanthaScreen TR-FRET competitive binding assay with purified GST-ERα LBD
smiles,measurement,value
CCC(=C(c1ccc(/C=C/C(=O)O)cc1)c1ccc(B(O)O)cc1)c1ccccc1 [GLL398],IC50,29.5 nM
